Assay results from publication PMC10817512, “OSMAC-Based Discovery and Biosynthetic Gene Clusters Analysis of Secondary Metabolites from Marine-Derived Streptomyces globisporus SCSIO LCY30” (Marine Drugs, 2023).
≈ marks a conversion by molar mass, not a printed value.

Key:
[1] = system: MRSA; test: Antibacterial MIC, CLSI microdilution; type: cell-based, Staphylococcus aureus
Description: (§1) An antibacterial activity test of compounds 1–3 was conducted according to a standard protocol provided by the Clinical and Laboratory Standards Institute (CLSI). Sixteen bacterial strains were used, including Staphylococcus aureus ATCC 29213, Staphylococcus aureus 16339, Staphylococcus aureus 1862, Staphylococcus aureus 3090, Staphylococcus aureus 991, Staphylococcus aureus 669, Staphylococcus aureus 745324, Staphylococcus aureus 16162, Staphylococcus aureus (cfr) GDE4P037P, Enterococcus faecalis ATCC 29212, Enterococcus faecalis 36950, Micrococcus luteus ML01, MRSA, Bacillus subtilis BS01, Enterococcus gallinarum 5F52C, and Enterococcus faecium 36711. Compounds 1–3 were dissolved in DMSO at a concentration of 3.2 mg/mL, and vancomycin and ampicilin were used as antibacterial control agents. […] All the assays were carried out in triplicate.

[2] = system: Staphylococcus simulans AKA1; test: Antibacterial MIC, CLSI microdilution; type: cell-based
[3] = system: Enterococcus faecalis 36950; test: Antibacterial MIC, CLSI microdilution; type: cell-based
Description: as §1

[4] = system: Staphylococcus aureus 669; test: Antibacterial MIC, CLSI microdilution; type: cell-based
Description: as §1

[5] = system: Staphylococcus aureus 745324; test: Antibacterial MIC, CLSI microdilution; type: cell-based
Description: as §1

[6] = system: Staphylococcus aureus 1862; test: Antibacterial MIC, CLSI microdilution; type: cell-based
Description: as §1

[7] = system: Enterococcus gallinarum 5F52C; test: Antibacterial MIC, CLSI microdilution; type: cell-based
Description: as §1

[8] = system: Staphylococcus aureus 991; test: Antibacterial MIC, CLSI microdilution; type: cell-based
Description: as §1

[9] = system: Staphylococcus aureus 16162; test: Antibacterial MIC, CLSI microdilution; type: cell-based
Description: as §1

[10] = system: Staphylococcus aureus 3090; test: Antibacterial MIC, CLSI microdilution; type: cell-based
Description: as §1

[11] = system: Enterococcus faecalis ATCC 29212; test: Antibacterial MIC, CLSI microdilution; type: cell-based
Description: as §1

[12] = system: Enterococcus faecium 36711; test: Antibacterial MIC, CLSI microdilution; type: cell-based
Description: as §1

[13] = system: Staphylococcus aureus ATCC 29213; test: Antibacterial MIC, CLSI microdilution; type: cell-based
Description: as §1

[14] = system: Staphylococcus aureus 16339; test: Antibacterial MIC, CLSI microdilution; type: cell-based
Description: as §1

[15] = system: Staphylococcus aureus (cfr) GDE4P037P; test: Antibacterial MIC, CLSI microdilution; type: cell-based
Description: as §1

[16] = system: Bacillus subtilis BS01; test: Antibacterial MIC, CLSI microdilution; type: cell-based
Description: as §1

[17] = system: Micrococcus luteus ML01; test: Antibacterial MIC, CLSI microdilution; type: cell-based
Description: as §1

[18] = system: human intestinal epithelial cell line NCM460; test: Cell growth inhibitory (cytotoxic) activity assay; type: cell-based; details: NCM460 (normal intestinal epithelial cell line)
From the text: (§2) The cell growth inhibitory activities of compounds 1–3 against fourteen different human cell lines (human liver cell line LX-2; hepatocellular cancer line HEPG2; human intestinal epithelial cell line NCM460; colorectal cancer cell lines HCT116 and SW480; normal human breast cell line MCF-10A; breast cancer cell line MCF7; triple-negative breast cancer cell lines MDA-MB-231, MDA-MB-468, and Bt-549; human umbilical vein endothelial cell line; lung cancer cell line A549; cervical cancer cell line Hela; and cholangiocarcinoma cell line RBE) were tested according to the previously published methods. SPSS software version 22.0 was used to test the IC50 values. Cisplatin and adriamycin were used as positive control agents, and all the experiments were carried out in triplicate.

[19] = system: normal human breast cell line MCF-10A; test: Cell growth inhibitory (cytotoxic) activity assay; type: cell-based; details: MCF-10A (normal human breast cell line)
From the text: as §2

[20] = system: human umbilical vein endothelial cell line HUVEC; test: Cell growth inhibitory (cytotoxic) activity assay; type: cell-based
From the text: as §2

[21] = system: human liver cell line LX-2; test: Cell growth inhibitory (cytotoxic) activity assay; type: cell-based; details: LX-2 (human liver cell line)
From the text: as §2

[22] = system: breast cancer cell line MCF7; test: Cell growth inhibitory (cytotoxic) activity assay; type: cell-based, human
From the text: SPSS software version 22.0 was used to test the IC50 values.

[23] = system: colorectal cancer cell line SW480; test: Cell growth inhibitory (cytotoxic) activity assay; type: cell-based, human; details: SW480 (colorectal cancer)
From the text: as §2

[24] = system: lung cancer cell line A549; test: Cell growth inhibitory (cytotoxic) activity assay; type: cell-based, human
From the text: as §2

[25] = system: triple-negative breast cancer cell line MDA-MB-468; test: Cell growth inhibitory (cytotoxic) activity assay; type: cell-based, human
From the text: as §2

[26] = system: cervical cancer cell line Hela; test: Cell growth inhibitory (cytotoxic) activity assay; type: cell-based, human
From the text: as §2

[27] = system: triple-negative breast cancer cell line Bt-549; test: Cell growth inhibitory (cytotoxic) activity assay; type: cell-based, human
From the text: as §2

[28] = system: colorectal cancer cell line HCT116; test: Cell growth inhibitory (cytotoxic) activity assay; type: cell-based, human
From the text: as §2

[29] = system: cholangiocarcinoma cell line RBE; test: Cell growth inhibitory (cytotoxic) activity assay; type: cell-based, human
From the text: as §2

[30] = system: triple-negative breast cancer cell line MDA-MB-231; test: Cell growth inhibitory (cytotoxic) activity assay; type: cell-based, human
From the text: as §2

[31] = system: hepatocellular cancer line HEPG2; test: Cell growth inhibitory (cytotoxic) activity assay; type: cell-based, human
From the text: as §2

[32] = system: Bacillus subtilis; parameters: method as in PMID 18396903; details: ref [35]; cited from earlier work

Compound `CN[C@H](CC(C)C)C(=O)N[C@H]1C(=O)N[C@@H](CC(N)=O)C(=O)N[C@H]2C(=O)N[C@H]3C(=O)N[C@H](C(=O)N[C@H](C(=O)O)c4cc(O)cc(O)c4-c4cc3ccc4O)[C@H](O)c3ccc(c(Cl)c3)Oc3cc2cc(c3O[C@@H]2O[C@H](CO)[C@@H](O)[C@H](O)[C@H]2O[C@H]2C[C@](C)(N)[C@H](O)[C@H](C)O2)Oc2ccc(cc2Cl)[C@H]1O` [Vancomycin, reference compound] has an MIC ([1]; Staphylococcus aureus) of 0.5 µg/mL (≈ 0.345 µM), an MIC ([2]; Staphylococcus simulans, AKA1) of 0.5 µg/mL (≈ 0.345 µM) and an MIC ([3]; Enterococcus faecalis, 36950) of 0.5 µg/mL (≈ 0.345 µM). The MIC ([4]; Staphylococcus aureus, 669) was 1 µg/mL (≈ 0.69 µM), the MIC ([5]; Staphylococcus aureus, 745324) was 1 µg/mL (≈ 0.69 µM) and the MIC ([6]; Staphylococcus aureus, 1862) was 1 µg/mL (≈ 0.69 µM). The MIC ([7]; Enterococcus gallinarum, GALLINARUM) was 4 µg/mL (≈ 2.76 µM), the MIC ([8]; Staphylococcus aureus, 991) was 0.5 µg/mL (≈ 0.345 µM) and the MIC ([9]; Staphylococcus aureus, 16162) was 0.5 µg/mL (≈ 0.345 µM). For the same compound, the MIC ([10]; Staphylococcus aureus, 3090) was 0.5 µg/mL (≈ 0.345 µM), the MIC ([11]; Enterococcus faecalis, ATCC29212) was 2 µg/mL (≈ 1.38 µM) and the MIC ([12]; Enterococcus faecium, 36711) was greater than 64 µg/mL. The MIC ([13]; Staphylococcus aureus, ATCC29213) was 1 µg/mL (≈ 0.69 µM), the MIC ([14]; Staphylococcus aureus, 16339) was 1 µg/mL (≈ 0.69 µM) and the MIC ([15]; Staphylococcus aureus) was 1 µg/mL (≈ 0.69 µM). It also gave an MIC ([16]; Bacillus subtilis, BS01) of 0.13 µg/mL (≈ 0.0897 µM) and an MIC ([17]; Micrococcus luteus, ML01) of 0.13 µg/mL (≈ 0.0897 µM).
Compound mayamycin A [Mayamycin (1)] has an MIC ([1]; 37 °C, 16–18 h) of 8 µg/mL, an MIC ([2]; Staphylococcus simulans AKA1, 37 °C, 16–18 h) of 32 µg/mL and an MIC ([3]; Enterococcus faecalis 36950, 37 °C, 16–18 h) of 8 µg/mL. The MIC ([4]; Staphylococcus aureus 669, 37 °C, 16–18 h) was 16 µg/mL, the MIC ([5]; Staphylococcus aureus 745324, 37 °C, 16–18 h) was 16 µg/mL and the MIC ([6]; Staphylococcus aureus 1862, 37 °C, 16–18 h) was 16 µg/mL. It also gave an MIC ([7]; Enterococcus gallinarum 5F52C, 37 °C, 16–18 h) of 32 µg/mL, an MIC ([8]; Staphylococcus aureus 991, 37 °C, 16–18 h) of 16 µg/mL and an MIC ([9]; Staphylococcus aureus 16162, 37 °C, 16–18 h) of 16 µg/mL. For the same compound, the MIC ([10]; Staphylococcus aureus 3090, 37 °C, 16–18 h) was 16 µg/mL, the MIC ([11]; Enterococcus faecalis ATCC 29212, 37 °C, 16–18 h) was 32 µg/mL and the MIC ([12]; Enterococcus faecium 36711, 37 °C, 16–18 h) was 16 µg/mL. For the same compound, the MIC ([13]; Staphylococcus aureus ATCC 29213, 37 °C, 16–18 h) was 16 µg/mL, the MIC ([14]; Staphylococcus aureus 16339, 37 °C, 16–18 h) was 16 µg/mL and the MIC ([15]; Staphylococcus aureus (cfr) GDE4P037P, 37 °C, 16–18 h) was 8 µg/mL. The MIC ([16]; Bacillus subtilis BS01, 37 °C, 16–18 h) was 8 µg/mL, the MIC ([17]; Micrococcus luteus ML01, 37 °C, 16–18 h) was 1 µg/mL and the IC50 [18] was 2640 nM. It also gave an IC50 [19] of 5980 nM, an IC50 [20] of 1680 nM and an IC50 [21] of 2310 nM. It also gave an IC50 [22] of 2100 nM, an IC50 [23] of 1050 nM and an IC50 [24] of 1650 nM. For the same compound, the IC50 ([25]; MDA-MB-468 (TNBC)) was 2220 nM, the selective index ([25]; MDA-MB-468 versus normal breast cells) was 2.69 and the IC50 [26] was 910 nM. For the same compound, the IC50 ([27]; Bt-549 (TNBC)) was 1880 nM, the selective index ([27]; Bt-549 versus normal breast cells) was 3.18 and the IC50 [28] was 1080 nM. It also gave an IC50 [29] of 1050 nM, an IC50 ([30]; MDA-MB-231 (TNBC)) of 600 nM and a selective index ([30]; MDA-MB-231 versus normal breast cells) of 9.97. It also gave an IC50 [31] of 2120 nM.
In the case of streptophenazine H, the MIC [32] is listed as 15.6 µg/mL.
